Measured values taken from US4231946A, “14,15-Methylene derivatives of the estrane series and methods for preparing same” (VEB Jenapharm, priority 1978, dated 1980).

Columns and labels:
[1] = tested on: mice (uterine fresh weight); test: Uterine activity in mice (dose for doubling uterine fresh weight); type: in vivo, mouse; details: p.o.
Text: Uterine and contraceptive activities produced by selected
14,15-methylene-17-ol-estratrienes in mice

[2] = in vivo
Text: In this context the compound is better than mestranol by a factor of 6.

In the case of `COc1ccc2c(c1)CC[C@@H]1[C@@H]2CC[C@]2(C)[C@@H](O)C[C@H]3C[C@@]312` [STS 593, 3-methoxy-14β,15β-methylene-estra-1,3,5(10)-triene-17β-ol], the “Total dose for doubling uterine fresh weight” value [1] was 0.45 μg/animal, the “Separation of contraceptive activity and undesirable post implantation fetal damage (in words)” value [2] was “favorable separation” and the “Separation of contraceptive activity and undesirable post implantation fetal damage: factor better than mestranol” value [2] was 6 factor.
